# Non-standard residues stand in square brackets, D forms with d. Residues, ends and D or L forms follow the SMILES beside them. C12 = C12 alkyl chain at peptide end (geminoid); C16 = C16 alkyl chain at peptide end (geminoid); C3 = C3 alkyl chain at peptide end
# What was measured:
# dengue 2 protease [1] = target: T1, dengue 2 protease (Dengue virus type 2, UniProt P14340); test: Dengue 2 protease inhibition in presence of Triton X-100 (detergent test, Nature Protocol); type: biochemical, dengue 2 virus; conditions: 0.05% Triton X-100; for Activity with 0.05% Triton: initial activity in UAF/min
# T1 construct: The active site of the dengue protease is in the N-terminal part of NS3
# Source text: A further investigation of the interactions of the geminoid inhibitors with biological membranes and with membrane-bound proteases is needed. […] The preparation and tests of peptides symmetrically, asymmetrically and singly alkylated with saturated, short (C6), and unsaturated (C18:1) alkyl tails are in progress.
# dengue 2 protease [2] = target: T1, dengue 2 protease; test: Dengue 2 protease inhibition, hydrolysis of Z-RR-MCA; type: biochemical, dengue 2 virus; parameters: Activity with inhibitors: unit not given here; conditions: for Activity with inhibitors: 10 μM Z-RR-MCA, pH 9.0, 37° C., initial activity in UAF/min
# Experimental: The active site of the dengue protease is in the N-terminal part of NS3 which is also a serine protease with catalytic triad Asp79-His51-Ser135, but requires […] (CF40) for activity; the inhibition reported here was studied on a […] (CF40-GGGGSGGGG-NS3; (SEQ ID NO:54)) which has also been structurally characterized [Erbel et al., 2006; Luo et al. 2008].
# Substrate was added in a concentration 10 times the Km, and the inhibitor compounds of type C (C16-KGnK-C16, C16-KAnK-C16, and C16-RAnR-C16) were added in increasing concentrations (1.0, 5.0, 10.0, 20.0, 40.0 μL) from a stock solution of 2 mg in 1 mL DMSO. The residual activity was measured in a Hitachi F2500 spectrofluorimeter, and plots were fitted using the Grafit® software (Erithracus Software, Horley, Surrey, UK). All the assays were calculated by the Morrison equation for competitive inhibition (eq. 1, [Morrison, 1969]). The amount of substrate used for the tight binding titration experiments follow all the requirements, where [S]<<Km for all enzymes, so the Kiapp=Ki.
# Range of Proteases Inhibited by Geminoids, Determination of Ki with Z-RR-MCA (Dengue 2 Protease) and Ac-RVRR-MCA (Furin) (SEQ ID NO:60).
# DENV2 protease replicon = DENV2 protease replicon assay; type: cell-based; conditions: lowest concentration with observed activity in replicon assay
# DENV2 protease = target: T2, DENV2 protease (Dengue virus type 2, UniProt P14340); test: DENV2 protease biochemical assay; conditions: for inhibition at 50 µM / % Inhibition at 50 μM (2): 50 μM inhibitor
# T2 construct: The active site of the dengue protease is in the N-terminal part of NS3
# T2 sequence (P14340 1476-1653): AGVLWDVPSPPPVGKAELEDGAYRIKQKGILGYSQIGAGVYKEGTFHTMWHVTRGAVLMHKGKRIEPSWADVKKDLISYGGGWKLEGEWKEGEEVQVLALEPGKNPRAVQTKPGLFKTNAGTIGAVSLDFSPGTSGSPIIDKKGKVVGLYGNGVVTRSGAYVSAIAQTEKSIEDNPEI
# T2 sequence (P14340 1398-1437): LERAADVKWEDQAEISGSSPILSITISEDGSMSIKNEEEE
# T1 sequence (P14340 1476-1653): as the sequence (P14340 1476-1653) above
compound,measurement,setting,value
"CCCCCCCCCCCCNC(=O)[C@H](CCCCN)NC(=O)[C@H](C)NC(=O)[C@H](C)NC(=O)[C@H](C)NC(=O)[C@H](CCCCN)NC(=O)CCCCCCCCCCC [C12KA3KC12, n-C11H23C(O)-Lys-(Ala)3-Lys-(n-C12H25).2TFA] (HELM PEPTIDE1{[CCCCCCCCCCCC(=O)[*:2]].K.A.A.A.K.[CCCCCCCCCCCCN[*:1]]}$$$$V2.0)",% recovery in presence of Triton,dengue 2 protease [1]; 5 μM of inhibitor,45%
same,Activity with 0.05% Triton,dengue 2 protease [1]; 5 μM of inhibitor,85
same,Ki,dengue 2 protease [2],5400 nM
same,Activity with inhibitors,dengue 2 protease [2]; 5 μM of inhibitor,30
CCCCCCCCCCCCNC(=O)[C@H](CCCCN)NC(=O)[C@H](CCCCN)NC(=O)[C@H](CCCCN)NC(=O)[C@H](C)NC(=O)CCCCCCCCCCC [C12-AKKK-C12] (HELM PEPTIDE1{[CCCCCCCCCCCC(=O)[*:2]].A.K.K.K.[CCCCCCCCCCCCN[*:1]]}$$$$V2.0),Replicon activity [μM] (1),DENV2 protease replicon,0.1 µM
same,IC50,DENV2 protease,300 nM
same,inhibition at 50 µM,DENV2 protease,98.5%
CCCCCCCCCCCCNC(=O)[C@H](CCCCN)NC(=O)[C@H](CCCCN)NC(=O)[C@H](CCCCN)NC(=O)[C@H](CC(C)C)NC(=O)CCCCCCCCCCC [C12-LKKK-C12] (HELM PEPTIDE1{[CCCCCCCCCCCC(=O)[*:2]].L.K.K.K.[CCCCCCCCCCCCN[*:1]]}$$$$V2.0),Replicon activity [μM] (1),DENV2 protease replicon,0.1 µM
same,IC50,DENV2 protease,300 nM
same,inhibition at 50 µM,DENV2 protease,102%
"C16-D-AKAK-L-S-C16: geminoid in shorthand Cp-Zn-Cq, D-AKAK with L-S, SEQ ID NO: 89 (C16-[dA][dK][dA][dK]S-C16)",Replicon activity [μM] (1),DENV2 protease replicon,3.0 µM
same,% Inhibition at 50 μM (2),DENV2 protease,108.0%
"CCCCCCCCCCCCCCCCNC(=O)[C@H](CCCNC(=N)N)NC(=O)[C@H](C)NC(=O)[C@H](C)NC(=O)[C@H](C)NC(=O)[C@H](CCCNC(=N)N)NC(=O)CCCCCCCCCCCCCCC [C16RA3RC16, n-C15H31C(O)-Arg-(Ala)3-Arg-(n-C16H33).2TFA] (HELM PEPTIDE1{[CCCCCCCCCCCCCCCC(=O)[*:2]].R.A.A.A.R.[CCCCCCCCCCCCCCCCN[*:1]]}$$$$V2.0)",% recovery in presence of Triton,dengue 2 protease [1]; 15 μM of inhibitor,50%
same,Activity with 0.05% Triton,dengue 2 protease [1]; 15 μM of inhibitor,124
same,Ki,dengue 2 protease [2],1300 nM
same,Activity with inhibitors,dengue 2 protease [2]; 15 μM of inhibitor,55
CCCCCCCCCCCCCCCCNC(=O)[C@H](CCCCN)NC(=O)[C@H](CCC(N)=O)NC(=O)[C@H](CCCNC(=N)N)NC(=O)[C@H](C)NC(=O)CCCCCCCCCCCCCCC [C16-ARQK-C16] (HELM PEPTIDE1{[CCCCCCCCCCCCCCCC(=O)[*:2]].A.R.Q.K.[CCCCCCCCCCCCCCCCN[*:1]]}$$$$V2.0),Replicon activity [μM] (1),DENV2 protease replicon,5.0 µM
same,IC50,DENV2 protease,300 nM
same,inhibition at 50 µM,DENV2 protease,95.7%
"C16-AKAKG-C16: geminoid in shorthand Cp-Zn-Cq, peptide SEQ ID NO: 87",Replicon activity [μM] (1),DENV2 protease replicon,3.0 µM
same,% Inhibition at 50 μM (2),DENV2 protease,102.3%
"C16-LKAKG-C16: geminoid in shorthand Cp-Zn-Cq, peptide SEQ ID NO: 88",Replicon activity [μM] (1),DENV2 protease replicon,3.0 µM
same,% Inhibition at 50 μM (2),DENV2 protease,98.4%
"C16-AAQK-C16: geminoid in shorthand Cp-Zn-Cq, peptide SEQ ID NO: 78",Replicon activity [μM] (1),DENV2 protease replicon,5.0 µM
same,% Inhibition at 50 μM (2),DENV2 protease,26.8%
CCCCCCCCCCCCCCCCNC(=O)[C@H](CO)NC(=O)[C@H](CCCCN)NC(=O)[C@H](C)NC(=O)[C@H](CCCCN)NC(=O)[C@H](CC(C)C)NC(=O)CCCCCCCCCCCCCCC [C16-LKAKS-C16] (HELM PEPTIDE1{[CCCCCCCCCCCCCCCC(=O)[*:2]].L.K.A.K.S.[CCCCCCCCCCCCCCCCN[*:1]]}$$$$V2.0),Replicon activity [μM] (1),DENV2 protease replicon,3.0 µM
same,IC50,DENV2 protease,300 nM
same,inhibition at 50 µM,DENV2 protease,108%
"C16-NKKR-C16: geminoid in shorthand Cp-Zn-Cq, peptide SEQ ID NO: 86",Replicon activity [μM] (1),DENV2 protease replicon,3.0 µM
"C3-AKKK-C3: alkylated peptide in shorthand Cp-Zn-Cq, peptide SEQ ID NO: 71 ({C3 alkyl}-AKKK-{C3 alkyl})",Replicon activity [μM] (1),DENV2 protease replicon,10.0 µM
"C12-AKAK-C12: geminoid in shorthand Cp-Zn-Cq, peptide SEQ ID NO: 74",Replicon activity [μM] (1),DENV2 protease replicon,10.0 µM
"C16-LKKK-C16: geminoid in shorthand Cp-Zn-Cq, peptide SEQ ID NO: 72",Replicon activity [μM] (1),DENV2 protease replicon,1.0 µM
"C16-D-LKAK-C16: geminoid in shorthand Cp-Zn-Cq, D-peptide, SEQ ID NO: 75 (C16-[dL][dK][dA][dK]-C16)",Replicon activity [μM] (1),DENV2 protease replicon,9.9 µM
"C2-LKAK-C3: alkylated peptide in shorthand Cp-Zn-Cq, peptide SEQ ID NO: 75 (Et-LKAK-C3)",Replicon activity [μM] (1),DENV2 protease replicon,10.0 µM
"C16-D-AKAK-C16: geminoid in shorthand Cp-Zn-Cq, D-peptide, SEQ ID NO: 74 (C16-[dA][dK][dA][dK]-C16)",Replicon activity [μM] (1),DENV2 protease replicon,2.9 µM
"C16-LKAK-C16: geminoid in shorthand Cp-Zn-Cq, peptide SEQ ID NO: 75",Replicon activity [μM] (1),DENV2 protease replicon,3.0 µM
"C12-LKAK-C12: geminoid in shorthand Cp-Zn-Cq, peptide SEQ ID NO: 75",Replicon activity [μM] (1),DENV2 protease replicon,10.0 µM
"C12-ARRK-C12: geminoid in shorthand Cp-Zn-Cq, peptide SEQ ID NO: 76",Replicon activity [μM] (1),DENV2 protease replicon,0.3 µM
"C16-AFKK-C16: geminoid in shorthand Cp-Zn-Cq, peptide SEQ ID NO: 68",Replicon activity [μM] (1),DENV2 protease replicon,5.0 µM
"C8-AKAK-C8: alkylated peptide in shorthand Cp-Zn-Cq, peptide SEQ ID NO: 74 ({C8 alkyl}-AKAK-{C8 alkyl})",Replicon activity [μM] (1),DENV2 protease replicon,10.0 µM
"C16-FFKK-C16: geminoid in shorthand Cp-Zn-Cq, peptide SEQ ID NO: 70",Replicon activity [μM] (1),DENV2 protease replicon,5.0 µM
"CCCCCCCCCCCCCCCCNC(=O)[C@H](CCCNC(=N)N)NC(=O)[C@H](C)NC(=O)[C@H](CCCNC(=N)N)NC(=O)CCCCCCCCCCCCCCC [C16RARC16, n-C15H31C(O)-Arg-Ala-Arg-(n-C16H33).2TFA]",% recovery in presence of Triton,dengue 2 protease [1]; 5 μM of inhibitor,52%
same,Activity with 0.05% Triton,dengue 2 protease [1]; 5 μM of inhibitor,105
same,Ki,dengue 2 protease [2],3100 nM
same,Activity with inhibitors,dengue 2 protease [2]; 5 μM of inhibitor,27
"C8-LKAK-C8: alkylated peptide in shorthand Cp-Zn-Cq, peptide SEQ ID NO: 75 ({C8 alkyl}-LKAK-{C8 alkyl})",Replicon activity [μM] (1),DENV2 protease replicon,10.0 µM
"C16-LFKK-C16: geminoid in shorthand Cp-Zn-Cq, peptide SEQ ID NO: 69",Replicon activity [μM] (1),DENV2 protease replicon,10.0 µM
"C16-RARK-C16: geminoid in shorthand Cp-Zn-Cq, peptide SEQ ID NO: 77",Replicon activity [μM] (1),DENV2 protease replicon,3.0 µM
"C16-AAKK-C16: geminoid in shorthand Cp-Zn-Cq, peptide SEQ ID NO: 62",Replicon activity [μM] (1),DENV2 protease replicon,5.0 µM
"C2-AKAK-C3: alkylated peptide in shorthand Cp-Zn-Cq, peptide SEQ ID NO: 74 (Et-AKAK-C3)",Replicon activity [μM] (1),DENV2 protease replicon,10.0 µM
"C3-FKKK-C3: alkylated peptide in shorthand Cp-Zn-Cq, peptide SEQ ID NO: 73 ({C3 alkyl}-FKKK-{C3 alkyl})",Replicon activity [μM] (1),DENV2 protease replicon,10.0 µM
"C16-D-AKAKS-C16: geminoid in shorthand Cp-Zn-Cq, D-peptide, SEQ ID NO: 89 (C16-[dA][dK][dA][dK][dS]-C16)",Replicon activity [μM] (1),DENV2 protease replicon,5.0 µM
"C8-LKKK-C8: alkylated peptide in shorthand Cp-Zn-Cq, peptide SEQ ID NO: 72",Replicon activity [μM] (1),DENV2 protease replicon,10.0 µM
